Results from PubChem BioAssay (NCI).
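1) Cells in 96-well plates. 2) Compound, 48 h, 5 concentrations. 3) Linear interpolation between surrounding doses. 4) Unreached endpoint = highest concentration. At the TGI there is no net growth.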

Assays:
Test in all cases: growth of human tumour cells (NCI), 48 h
HCT-116 colon = test system: HCT-116 colon
HCC-2998 colon = test system: HCC-2998 colon
HCT-15 colon = test system: HCT-15 colon
MDA-MB-231 breast = test system: MDA-MB-231 breast
NCI-H460 lung = test system: NCI-H460 lung
IGROV1 ovarian = test system: IGROV1 ovarian
SF-539 CNS = test system: SF-539 CNS
HT29 colon = test system: HT29 colon
OVCAR-3 ovarian = test system: OVCAR-3 ovarian
HL-60(TB) leukemia = test system: HL-60(TB) leukemia
MDA-N = test system: MDA-N
SN12C renal = test system: SN12C renal
MDA-MB-435 = test system: MDA-MB-435
HOP-92 NSCLC = test system: HOP-92 NSCLC
KM12 colon = test system: KM12 colon
HS 578T breast = test system: HS 578T breast
CCRF-CEM leukemia = test system: CCRF-CEM leukemia
K-562 leukemia = test system: K-562 leukemia
MALME-3M melanoma = test system: MALME-3M melanoma
M14 melanoma = test system: M14 melanoma
OVCAR-8 ovarian = test system: OVCAR-8 ovarian
NCI-H522 lung = test system: NCI-H522 lung
UACC-62 melanoma = test system: UACC-62 melanoma
SF-268 CNS = test system: SF-268 CNS
TK-10 renal = test system: TK-10 renal
SNB-19 CNS = test system: SNB-19 CNS
SF-295 CNS = test system: SF-295 CNS
U251 CNS = test system: U251 CNS
RXF 393 renal = test system: RXF 393 renal
SK-MEL-28 melanoma = test system: SK-MEL-28 melanoma
786-0 renal = test system: 786-0 renal
UACC-257 melanoma = test system: UACC-257 melanoma
COLO 205 colon = test system: COLO 205 colon
DU-145 prostate = test system: DU-145 prostate
CAKI-1 renal = test system: CAKI-1 renal
A549 NSCLC = test system: A549 NSCLC
NCI-H23 lung = test system: NCI-H23 lung
OVCAR-5 ovarian = test system: OVCAR-5 ovarian
SK-MEL-5 melanoma = test system: SK-MEL-5 melanoma
SR leukemia = test system: SR leukemia
SW-620 colon = test system: SW-620 colon
LOX IMVI melanoma = test system: LOX IMVI melanoma
PC-3 prostate = test system: PC-3 prostate
ACHN renal = test system: ACHN renal
EKVX NSCLC = test system: EKVX NSCLC
HOP-62 NSCLC = test system: HOP-62 NSCLC
NCI-H226 lung = test system: NCI-H226 lung
RPMI-8226 leukemia = test system: RPMI-8226 leukemia
SK-OV-3 ovarian = test system: SK-OV-3 ovarian
A498 renal = test system: A498 renal
NCI/ADR-RES ovarian = test system: NCI/ADR-RES ovarian
SNB-75 CNS = test system: SNB-75 CNS
OVCAR-4 ovarian = test system: OVCAR-4 ovarian
T-47D breast = test system: T-47D breast
MOLT-4 leukemia = test system: MOLT-4 leukemia
MCF7 breast = test system: MCF7 breast
UO-31 renal = test system: UO-31 renal
BT-549 breast = test system: BT-549 breast
SK-MEL-2 melanoma = test system: SK-MEL-2 melanoma

**Q.** Which TGI (HCT-116 colon) does the source give for `CCC1(C)N=C(C(N)=O)c2ncn(N=C(C)C)c2N1` (stereo not given) here?
**A.** > 100 µM

**Q.** And the TGI (HCC-2998 colon)?
**A.** > 100 µM

**Q.** And the TGI (HCT-15 colon)?
**A.** > 100 µM

**Q.** What about the TGI (MDA-MB-231 breast) of the same compound?
**A.** > 100 µM

**Q.** What about the TGI (NCI-H460 lung) of the same compound?
**A.** > 100 µM

**Q.** What about the TGI (IGROV1 ovarian) of the same compound?
**A.** > 100 µM

**Q.** And the TGI (SF-539 CNS)?
**A.** > 100 µM

**Q.** What about the TGI (HT29 colon) of the same compound?
**A.** > 100 µM

**Q.** What about the TGI (OVCAR-3 ovarian) of the same compound?
**A.** > 100 µM

**Q.** What about the TGI (HL-60(TB) leukemia) of the same compound?
**A.** > 100 µM

**Q.** And the TGI (MDA-N)?
**A.** > 100 µM

**Q.** And the TGI (SN12C renal)?
**A.** > 100 µM

**Q.** And the TGI (MDA-MB-435)?
**A.** > 100 µM

**Q.** What about the TGI (HOP-92 NSCLC) of the same compound?
**A.** > 100 µM

**Q.** What about the TGI (KM12 colon) of the same compound?
**A.** > 100 µM

**Q.** What about the TGI (HS 578T breast) of the same compound?
**A.** > 100 µM

**Q.** And the TGI (CCRF-CEM leukemia)?
**A.** > 100 µM

**Q.** What about the TGI (K-562 leukemia) of the same compound?
**A.** > 100 µM

**Q.** And the TGI (MALME-3M melanoma)?
**A.** > 100 µM

**Q.** And the TGI (M14 melanoma)?
**A.** > 100 µM

**Q.** And the TGI (OVCAR-8 ovarian)?
**A.** > 100 µM

**Q.** And the TGI (NCI-H522 lung)?
**A.** > 100 µM

**Q.** What about the TGI (UACC-62 melanoma) of the same compound?
**A.** > 100 µM

**Q.** What about the TGI (SF-268 CNS) of the same compound?
**A.** > 100 µM

**Q.** What about the TGI (TK-10 renal) of the same compound?
**A.** > 100 µM

**Q.** What about the TGI (SNB-19 CNS) of the same compound?
**A.** > 100 µM

**Q.** And the TGI (SF-295 CNS)?
**A.** > 100 µM

**Q.** And the TGI (U251 CNS)?
**A.** > 100 µM

**Q.** And the TGI (RXF 393 renal)?
**A.** > 100 µM

**Q.** What about the TGI (SK-MEL-28 melanoma) of the same compound?
**A.** > 100 µM

**Q.** And the TGI (786-0 renal)?
**A.** > 100 µM

**Q.** What about the TGI (UACC-257 melanoma) of the same compound?
**A.** > 100 µM

**Q.** And the TGI (COLO 205 colon)?
**A.** > 100 µM

**Q.** What about the TGI (DU-145 prostate) of the same compound?
**A.** > 100 µM

**Q.** And the TGI (CAKI-1 renal)?
**A.** > 100 µM

**Q.** And the TGI (A549 NSCLC)?
**A.** > 100 µM

**Q.** And the TGI (NCI-H23 lung)?
**A.** > 100 µM

**Q.** And the TGI (OVCAR-5 ovarian)?
**A.** > 100 µM

**Q.** And the TGI (SK-MEL-5 melanoma)?
**A.** > 100 µM

**Q.** And the TGI (SR leukemia)?
**A.** > 100 µM

**Q.** What about the TGI (SW-620 colon) of the same compound?
**A.** > 100 µM

**Q.** What about the TGI (LOX IMVI melanoma) of the same compound?
**A.** > 100 µM

**Q.** What about the TGI (PC-3 prostate) of the same compound?
**A.** > 100 µM

**Q.** And the TGI (ACHN renal)?
**A.** > 100 µM

**Q.** What about the TGI (EKVX NSCLC) of the same compound?
**A.** > 100 µM

**Q.** And the TGI (HOP-62 NSCLC)?
**A.** > 100 µM

**Q.** What about the TGI (NCI-H226 lung) of the same compound?
**A.** > 100 µM

**Q.** What about the TGI (RPMI-8226 leukemia) of the same compound?
**A.** > 100 µM

**Q.** What about the TGI (SK-OV-3 ovarian) of the same compound?
**A.** > 100 µM

**Q.** What about the TGI (A498 renal) of the same compound?
**A.** > 100 µM

**Q.** What about the TGI (NCI/ADR-RES ovarian) of the same compound?
**A.** > 100 µM

**Q.** And the TGI (SNB-75 CNS)?
**A.** > 100 µM

**Q.** And the TGI (OVCAR-4 ovarian)?
**A.** > 100 µM

**Q.** What about the TGI (T-47D breast) of the same compound?
**A.** > 100 µM

**Q.** Which TGI (HCT-116 colon) does the source give for `CC(C)(C)OC(=O)N1CCC23CCCC2C(=O)CC=C13` (stereo not given) here?
**A.** > 100 µM

**Q.** What about the TGI (HCC-2998 colon) of the same compound?
**A.** > 100 µM

**Q.** And the TGI (HCT-15 colon)?
**A.** > 100 µM

**Q.** What about the TGI (MDA-MB-231 breast) of the same compound?
**A.** > 100 µM

**Q.** What about the TGI (MOLT-4 leukemia) of the same compound?
**A.** > 100 µM

**Q.** What about the TGI (NCI-H460 lung) of the same compound?
**A.** > 100 µM

**Q.** And the TGI (MCF7 breast)?
**A.** > 100 µM

**Q.** And the TGI (IGROV1 ovarian)?
**A.** > 100 µM

**Q.** And the TGI (SF-539 CNS)?
**A.** > 100 µM

**Q.** What about the TGI (HT29 colon) of the same compound?
**A.** > 100 µM

**Q.** And the TGI (OVCAR-3 ovarian)?
**A.** > 100 µM

**Q.** What about the TGI (HL-60(TB) leukemia) of the same compound?
**A.** > 100 µM

**Q.** What about the TGI (SN12C renal) of the same compound?
**A.** > 100 µM

**Q.** And the TGI (MDA-MB-435)?
**A.** > 100 µM

**Q.** And the TGI (HOP-92 NSCLC)?
**A.** > 100 µM

**Q.** What about the TGI (KM12 colon) of the same compound?
**A.** > 100 µM

**Q.** What about the TGI (HS 578T breast) of the same compound?
**A.** > 100 µM

**Q.** What about the TGI (CCRF-CEM leukemia) of the same compound?
**A.** > 100 µM

**Q.** What about the TGI (K-562 leukemia) of the same compound?
**A.** > 100 µM

**Q.** What about the TGI (MALME-3M melanoma) of the same compound?
**A.** > 100 µM

**Q.** What about the TGI (M14 melanoma) of the same compound?
**A.** > 100 µM

**Q.** And the TGI (OVCAR-8 ovarian)?
**A.** > 100 µM

**Q.** And the TGI (UO-31 renal)?
**A.** > 100 µM

**Q.** And the TGI (NCI-H522 lung)?
**A.** > 100 µM

**Q.** And the TGI (UACC-62 melanoma)?
**A.** > 100 µM

**Q.** What about the TGI (SF-268 CNS) of the same compound?
**A.** > 100 µM

**Q.** What about the TGI (BT-549 breast) of the same compound?
**A.** > 100 µM

**Q.** And the TGI (TK-10 renal)?
**A.** > 100 µM

**Q.** And the TGI (SNB-19 CNS)?
**A.** > 100 µM

**Q.** And the TGI (SK-MEL-2 melanoma)?
**A.** > 100 µM

**Q.** What about the TGI (SF-295 CNS) of the same compound?
**A.** > 100 µM

**Q.** And the TGI (U251 CNS)?
**A.** > 100 µM

**Q.** What about the TGI (RXF 393 renal) of the same compound?
**A.** > 100 µM

**Q.** What about the TGI (SK-MEL-28 melanoma) of the same compound?
**A.** > 100 µM

**Q.** What about the TGI (786-0 renal) of the same compound?
**A.** > 100 µM

**Q.** And the TGI (UACC-257 melanoma)?
**A.** 71.9 µM

**Q.** And the TGI (COLO 205 colon)?
**A.** > 100 µM

**Q.** What about the TGI (DU-145 prostate) of the same compound?
**A.** > 100 µM

**Q.** What about the TGI (CAKI-1 renal) of the same compound?
**A.** > 100 µM

**Q.** And the TGI (A549 NSCLC)?
**A.** > 100 µM

**Q.** What about the TGI (NCI-H23 lung) of the same compound?
**A.** > 100 µM

**Q.** And the TGI (OVCAR-5 ovarian)?
**A.** > 100 µM

**Q.** What about the TGI (SK-MEL-5 melanoma) of the same compound?
**A.** > 100 µM

**Q.** What about the TGI (SR leukemia) of the same compound?
**A.** > 100 µM

**Q.** And the TGI (SW-620 colon)?
**A.** > 100 µM

**Q.** What about the TGI (LOX IMVI melanoma) of the same compound?
**A.** > 100 µM

**Q.** What about the TGI (PC-3 prostate) of the same compound?
**A.** > 100 µM

**Q.** What about the TGI (ACHN renal) of the same compound?
**A.** > 100 µM

**Q.** What about the TGI (EKVX NSCLC) of the same compound?
**A.** > 100 µM

**Q.** What about the TGI (HOP-62 NSCLC) of the same compound?
**A.** > 100 µM

**Q.** And the TGI (NCI-H226 lung)?
**A.** > 100 µM

**Q.** And the TGI (SK-OV-3 ovarian)?
**A.** > 100 µM

**Q.** What about the TGI (NCI/ADR-RES ovarian) of the same compound?
**A.** > 100 µM

**Q.** And the TGI (SNB-75 CNS)?
**A.** > 100 µM

**Q.** And the TGI (OVCAR-4 ovarian)?
**A.** > 100 µM

**Q.** What about the TGI (T-47D breast) of the same compound?
**A.** > 100 µM
